Reference: ChEMBL document CHEMBL1148658, “New HIV-1 reverse transcriptase inhibitors based on a tricyclic benzothiophene scaffold: synthesis, resolution, and inhibitory activity” (Bioorg Med Chem Lett, 2006)

biological target: Human immunodeficiency virus type 1 reverse transcriptase (Human immunodeficiency virus 1, UniProt Q72547); test: Inhibition of wild type HIV1 reverse transcriptase in 293T cells; format: cell-based

Compound | IC50 [µM]
COC(=O)C1=C(N2CCCC2)C2c3ccccc3SC12C(=O)OC (configuration not stated) | 1.2
COC(=O)C1=C(N2CCC2)C2c3ccccc3SC12C(=O)OC (configuration not stated) | > 10
COC(=O)C1=C(N2CCC[C@@H]2C)[C@@H]2c3ccccc3S[C@]12C(=O)OC | > 25
COC(=O)C1=C(N2CC=CC2)C2c3ccccc3SC12C(=O)OC (configuration not stated) | 5.1
COC(=O)C1=C(N2CCC[C@H]2C)[C@H]2c3ccccc3S[C@@]12C(=O)OC | 0.5
CC(C)(C)OC(=O)C1=C(N2CCCC2)C2c3ccccc3SC12C(=O)OC(C)(C)C (configuration not stated) | > 20
CCOC(=O)C1=C(N2CCCC2)[C@@H]2c3ccccc3S[C@]12C(=O)OCC | > 20
CCOC(=O)C1=C(N2CCCC2)[C@H]2c3ccccc3S[C@@]12C(=O)OCC | > 20
COC[C@H]1CCCN1C1=C(C(=O)OC)C2(C(=O)OC)Sc3ccccc3C12 (some centres not stated) | 48
COC(=O)C1=C(N2CCCCC2)[C@@H]2c3ccccc3S[C@]12C(=O)OC | > 40
COC[C@H]1CCCN1C1=C(C(=O)OC)[C@]2(C(=O)OC)Sc3ccccc3[C@H]12 | 38
COC(=O)C1=C(N2CCC[C@H]2C)[C@@H]2c3ccccc3S[C@]12C(=O)OC | 11
COC[C@H]1CCCN1C1=C(C(=O)OC)[C@@]2(C(=O)OC)Sc3ccccc3[C@@H]12 | > 50
COC(=O)C1=C(N2CCC[C@@H]2C)[C@H]2c3ccccc3S[C@@]12C(=O)OC | 2.3
COC(=O)C1=C(N2CCCC2)[C@@H]2c3ccccc3S[C@]12C(=O)OC | > 20
COC(=O)C1=C(N2CCCCC2)C2c3ccccc3SC12C(=O)OC (configuration not stated) | 8.9
COC(=O)C1=C(N2CCCC2)[C@H]2c3ccccc3S[C@@]12C(=O)OC | 0.8
COC(=O)C1=C(N2CCCCC2)[C@H]2c3ccccc3S[C@@]12C(=O)OC | 7.7
CCOC(=O)C1=C(N2CCCC2)C2c3ccccc3SC12C(=O)OCC (configuration not stated) | > 20

biological target: Human immunodeficiency virus type 1 reverse transcriptase (Human immunodeficiency virus 1, UniProt Q72547, K103N); test: Inhibition of HIV1 reverse transcriptase K103N mutant in 293T cells; format: cell-based

Compound | IC50 [µM]
COC(=O)C1=C(N2CCCC2)C2c3ccccc3SC12C(=O)OC (configuration not stated) | > 30

biological target: Human immunodeficiency virus type 1 reverse transcriptase (Human immunodeficiency virus 1, UniProt Q72547, Y181C); test: Inhibition of HIV1 reverse transcriptase Y181C mutant in 293T cells; format: cell-based

Compound | IC50 [µM]
COC(=O)C1=C(N2CCCC2)C2c3ccccc3SC12C(=O)OC (configuration not stated) | > 30

biological target: Human immunodeficiency virus type 1 reverse transcriptase (Human immunodeficiency virus 1, UniProt Q72547, Y188C); test: Inhibition of HIV1 reverse transcriptase Y188C mutant in 293T cells; format: cell-based

Compound | IC50 [µM]
COC(=O)C1=C(N2CCCC2)C2c3ccccc3SC12C(=O)OC (configuration not stated) | > 30
